Experiments:
E. coli = assay: Stability of hydrogen peroxide (bound vs free) in aqueous solution challenged with E. coli; assay type: physicochemical
Excerpt: This method tests the stability of the hydrogen peroxide in the combination. The testing methods used follow the standard procedures set-forth by the Clinical and Laboratory Standards Institute (CLSI) and US Pharmacopeia. • i. E. coli was chosen as the bacteria to challenge the stability of the bound compositions and the free hydrogen peroxide. • ii. The hydrogen peroxide concentration was matched to the selected bacteria in order to form a useful curve representing hydrogen peroxide degradation over time for the samples. As such, the hydrogen peroxide was varied from 62.5 ppm to 500 ppm on a fixed E. coli concentration of 10^6 CFU/ml, and a concentration of 125 ppm was chosen as the initial hydrogen peroxide level used to challenge the E. coli over time. • iii. A ratio of 1:1 of the hydrogen peroxide to each of the model compounds and plant extracts was used to form each bound composition, such that 125 ppm of each plant extract was combined with the 125 ppm of the hydrogen peroxide, • iv. The free hydrogen peroxide was added at a concentration of 125 ppm as a control to show the relative stability of the hydrogen peroxide alone in the aqueous solution as compared to the bound compositions.
FIG. 2A compares stabilities of free hydrogen peroxide to hydrogen peroxide bound to each of: gallic acid (a model polyphenol building block), tannic acid (a model polyphenol), pomegranate husk extract, green tea extract, and Blessed thistle extract. […] In both FIGS. 2A and 2B, there are curves that cannot be identified well individually, as they are identical and overlapping. […]

[1] = test system: IBS patients, abdominal pain; conditions: other studies; cited from earlier work
[2] = Amount of hydrogen peroxide that remains bound to the polyphenol in dry form; assay type: physicochemical; conditions: dry form redissolved in water; WATERWORKS peroxide test strip
Excerpt: Art-recognized procedures, such as those set-forth at least in U.S. Pat. Nos. 3,860,694; 3,864,454; 4,171,280; and 4,966,762, were used as a guide for this study.
As discussed, one of skill will appreciate that hydrogen peroxide in a free form, for example, would otherwise quickly degrade. The polyphenols were provided from model compounds or plant extracts. A dry form of the compositions was made between (i) gallic acid (a model polyphenol building block from Sigma-Aldrich) and hydrogen peroxide; (ii) tannic acid (a model polyphenol component from Sigma-Aldrich) and hydrogen peroxide; (iii) pomegranate husk extract and hydrogen peroxide; and, (iv) green tea extract and hydrogen peroxide; using the procedures taught herein, including: • i. adding a solution of 35% hydrogen peroxide slowly into each of the gallic acid powder, tannic powder, pomegranate husk extract powder; or green tea extract powder. […]

## OO [H2O2, hydrogen peroxide]
E. coli; 0 h (initial level), 1:1 extract:H2O2, 125 ppm each, E. coli 10^6 CFU/ml
  hydrogen peroxide level, Hours 0: 125 ppm
E. coli; 4 h, 1:1 extract:H2O2, E. coli 10^6 CFU/ml
  hydrogen peroxide level, Hours 4: 15 ppm
E. coli; 8 h, 1:1 extract:H2O2, E. coli 10^6 CFU/ml
  hydrogen peroxide level, Hours 8: 0 ppm
E. coli; 12 h, 1:1 extract:H2O2, E. coli 10^6 CFU/ml
  hydrogen peroxide level, Hours 12: 0 ppm
E. coli; 16 h, 1:1 extract:H2O2, E. coli 10^6 CFU/ml
  hydrogen peroxide level, Hours 16: 0 ppm
E. coli; 20 h, 1:1 extract:H2O2, E. coli 10^6 CFU/ml
  hydrogen peroxide level, Hours 20: 0 ppm
E. coli; 24 h, 1:1 extract:H2O2, E. coli 10^6 CFU/ml
  hydrogen peroxide level, Hours 24: 0 ppm
E. coli; within about the first 8 hours
  hydrogen peroxide level after degradation: ~0.0 ppm

## CN(C)C(=O)C(CCN1CCC(O)(c2ccc(Cl)cc2)CC1)(c1ccccc1)c1ccccc1 [loperamide]
[1]
  effect on abdominal pain symptoms compared with placebo: no different from placebo

## O=C(OC[C@H]1O[C@@H](OC(=O)c2cc(O)c(O)c(OC(=O)c3cc(O)c(O)c(O)c3)c2)[C@H](OC(=O)c2cc(O)c(O)c(OC(=O)c3cc(O)c(O)c(O)c3)c2)[C@@H](OC(=O)c2cc(O)c(O)c(OC(=O)c3cc(O)c(O)c(O)c3)c2)[C@@H]1OC(=O)c1cc(O)c(O)c(OC(=O)c2cc(O)c(O)c(O)c2)c1)c1cc(O)c(O)c(OC(=O)c2cc(O)c(O)c(O)c2)c1 [tannic acid]
[2]
  hydrogen peroxide bound by total dry wt: about 2.5%

## O=C(O)c1cc(O)c(O)c(O)c1 [gallic acid]
[2]
  hydrogen peroxide bound by total dry wt: about 3.0%

— patent publication US10493102B2, “Methods of inhibiting the virulence of a pathogen with an oxidized tannin to treat a gastrointestinal spasm” (priority 2012, dated 2019)
